Laboratory results from ChEMBL document CHEMBL3352577, “A simple and widely applicable hit validation strategy for protein-protein interaction inhibitors based on a quantitative ligand displacement assay” (Bioorg Med Chem Lett, 2014).

How the values were obtained:
[1] = target: T1, Induced myeloid leukemia cell differentiation protein Mcl-1 (Homo sapiens, UniProt Q07820); assay: Displacement of F-bid from human recombinant N-terminal His-tagged Mcl-1 (1 to 319) expressed in Escherichia coli BL21(DE3) after 2 hrs by fluorescence polarization assay
T1 sequence (Q07820 whole entry): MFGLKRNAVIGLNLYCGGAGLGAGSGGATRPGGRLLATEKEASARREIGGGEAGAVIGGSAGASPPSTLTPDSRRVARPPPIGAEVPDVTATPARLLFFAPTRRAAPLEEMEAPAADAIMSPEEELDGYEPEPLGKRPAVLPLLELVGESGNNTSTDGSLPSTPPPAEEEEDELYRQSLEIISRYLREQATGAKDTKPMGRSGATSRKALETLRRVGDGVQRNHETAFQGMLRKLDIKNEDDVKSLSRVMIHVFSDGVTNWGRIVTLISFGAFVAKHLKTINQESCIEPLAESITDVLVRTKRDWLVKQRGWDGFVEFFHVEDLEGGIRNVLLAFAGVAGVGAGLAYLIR

Bcl-2-like protein 1 [2] = target: T2, Bcl-2-like protein 1 (Homo sapiens, UniProt Q07817); assay: Displacement of F-bid from human recombinant N-terminal His-tagged Bcl-xL (1 to 209) expressed in Escherichia coli BL21(DE3) after 120 mins by TR-FRET assay
T2 sequence (Q07817 whole entry): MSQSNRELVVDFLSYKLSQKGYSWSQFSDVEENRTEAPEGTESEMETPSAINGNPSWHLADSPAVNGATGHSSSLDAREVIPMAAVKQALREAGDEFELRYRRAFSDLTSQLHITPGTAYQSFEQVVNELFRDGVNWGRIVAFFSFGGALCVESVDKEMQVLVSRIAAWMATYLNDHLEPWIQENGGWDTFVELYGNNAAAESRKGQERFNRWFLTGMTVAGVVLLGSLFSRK

Bcl-2-like protein 1 [3] = target: T2, Bcl-2-like protein 1; assay: Displacement of F-bid from human recombinant N-terminal His-tagged Bcl-xL (1 to 209) expressed in Escherichia coli BL21(DE3) after 2 hrs by fluorescence polarization assay
[4] = target: T1, Induced myeloid leukemia cell differentiation protein Mcl-1; assay: Displacement of F-bid from human recombinant N-terminal His-tagged Mcl-1 (1 to 319) expressed in Escherichia coli BL21(DE3) after 120 mins by TR-FRET assay
Bcl-2-like protein 1 [5] = target: T2, Bcl-2-like protein 1; assay: Displacement of F-bid from human recombinant N-terminal His-tagged Bcl-xL (1 to 209) expressed in Escherichia coli BL21(DE3) after 30 mins by TR-FRET assay
Bcl-2-like protein 1 [6] = target: T2, Bcl-2-like protein 1; assay: Reversible inhibition of human recombinant N-terminal His-tagged Bcl-xL (1 to 209) expressed in Escherichia coli BL21(DE3) after 30 to 120 mins by TR-FRET assay in presence of F-bid

Ki [1]	IC50 (Bcl-2-like protein 1 [2])	Ki (Bcl-2-like protein 1 [2])	Ki (Bcl-2-like protein 1 [3])	Ki [4]	IC50 (Bcl-2-like protein 1 [5])	Ki (Bcl-2-like protein 1 [6])	Structure (SMILES)
14 µM	19 µM	12 µM	4.7 µM	12 µM	18 µM	13 µM	O=C(CC(Sc1ccc(Cl)cc1)C(=O)O)c1ccc(C2CCCCC2)cc1 (centres undefined)
				20 µM		9 µM	O=C(CC(Cc1ccc(Cl)cc1)C(=O)O)c1ccc(C2CCCCC2)cc1 (centres undefined)
